For one series, the system named is KCNN2. In words: Intranasal delivery to PFC, immunohistochemistry for biotin and KCNN2. The format is in vivo, mouse (CD-1). The following applies: PFC in addition to motor cortex. As to the method:
Mice were deeply anesthetized with isoflurane (Henry Schein, OH) and perfused through the ascending aorta with ice cold 4% paraformaldehyde (PFA) following a standard laboratory protocol. Brains were collected and post-fixed in 4% PFA at 4°C overnight, followed by incubation in 10% and 30% sucrose in PBS at 4°C for 24 hours. Coronal sections at 60 μm thickness were made using a cryostat (CM3050S; Leica, Germany). Free floating sections were incubated with hydrogen peroxide in methanol (1:4) solution at −20°C for 20 minutes to inactivate endogenous peroxidase activity. […]
Lei-Dab7 or biotinylated Lei-Dab7 (Smartox Biotechnology, France) was dissolved in PBS and administered to mice intranasally at 3.0 μg/kg/day. […] Physiological monitoring was recorded at 30 minutes and 24 hours post administration by using PhysioSuite (Kent Scientific, CT).
KCNN2, NeuN, GFAP, IBA1, and biotin-positive cells were quantified. […] Allen Brain Atlas was used to define different brain regions visualized by DAPI staining, and single-plane images from defined regions were used for the quantification. The researcher conducting the quantification was blinded to treatment groups throughout the analysis to minimize bias. The size of the region of interest was determined for each analysis to include a sufficient number of labeled cells with clear and detailed staining. […]

Series [1] can be described thus: Physiological monitoring (PhysioSuite) after intranasal administration. Format: in vivo, mouse (CD-1). As to the method:
Lei-Dab7 or biotinylated Lei-Dab7 (Smartox Biotechnology, France) was dissolved in PBS and administered to mice intranasally at 3.0 μg/kg/day. Vehicle (PBS) only was administered as the control. Briefly, the mouse was held softly on the neck to avoid any movement during drug administration. A 20-μL pipette was used to deliver 3 to 5 μL drug at a time. The tip was placed close enough to the mouse’s nostril at a 45-degree angle, and the drug was slowly ejected into the nostril. The mouse was let to inhale for 3 to 5 seconds and then left in a cage for 5 minutes to fully inhale the drug. This process was repeated until the required amount of drug was administered in a few minutes. The alternate nostril was used to deliver the drug each time to increase the efficiency of administration. Successful delivery by this method was confirmed by detecting biotinylated Lei-Dab7 in the brain, which was collected and immersion-fixed with 4% PFA at 15 minutes after intranasal administration using ABC (Thermo Fisher Scientific, NY) and TSA (PerkinElmer, MA) kits. For the analysis on the effect of treatment, Lei-Dab7 was administered daily throughout the reversal learning test phase of the water T-maze test. Physiological monitoring was recorded at 30 minutes and 24 hours post administration by using PhysioSuite (Kent Scientific, CT).
Supplementary Figure 4. […] Pulse oximetry, heart rate, and body temperature were recorded at 30 minutes and 24 hours post administration of vehicle control (30 minutes only) or Lei-Dab7 (30 minutes, 24 hours). Siblings from the same mother were used as the control for the Lei-Dab7 treatment. […] Data are presented in box plots. The line within the box indicates the median, and the upper and lower edges of the box represent the 25th and 75th percentiles, respectively. The upper and lower whisker boundaries indicate the 10th and 90th percentiles, respectively, and dots indicate outliers.

Where [2] appears, read: P40, 30 minutes and 24 hours post administration, one-way ANOVA, n = 6 animals from 3 litters per group.

Structures are written as SMILES. “Also recorded” adds a separate entry of the source. Positions of bridges follow the written chain, without caps; N, C: chain ends. Non-standard residues stand in square brackets, D forms with d. Residues, ends and D or L forms follow the SMILES beside them. Dab = NCC[C@H](N)C(=O)O

As to `CC[C@H](C)[C@@H]1NC(=O)[C@@H]2CSSC[C@H](NC(=O)[C@H](Cc3ccccc3)NC(=O)[C@H](C)N)C(=O)N[C@@H](CC(N)=O)C(=O)N[C@@H](CC(C)C)C(=O)N[C@@H](CCCNC(=N)N)C(=O)N[C@@H](CCN)C(=O)N[C@H]3CSSC[C@H](NC(=O)[C@H](CCCCN)NC(=O)[C@H](CC(=O)O)NC(=O)CNC1=O)C(=O)N[C@@H](CCC(=O)O)C(=O)N[C@H](C(=O)N[C@H](C(=O)N[C@@H](CCCCN)C(=O)N[C@@H](Cc1c[nH]cn1)C(N)=O)C(C)C)CSSC[C@H](NC(=O)[C@H](CO)NC(=O)[C@H](CC(C)C)NC(=O)[C@H](CCC(N)=O)NC3=O)C(=O)N[C@@H](CCCNC(=N)N)C(=O)N[C@@H](CO)C(=O)N[C@@H](CC(C)C)C(=O)NCC(=O)N[C@@H](CC(C)C)C(=O)N[C@@H](CC(C)C)C(=O)NCC(=O)N[C@@H](CCCCN)C(=O)N2` [Lei-Dab7, Leiurotoxin-1 Dab7] (H-AFCNLR[Dab]CQLSCRSLGLLGKCIGDKCECVKH-NH2; disulfide 3-21, 8-26, 12-28), in the series with KCNN2, the “delivery to target brain regions” value is “efficiently reaches the target in the brain; also recorded: effectively reaches its target regions, including the PFC (Figs. 3, 4) in addition to the motor cortex”. The “toxicity, 3 primary physiological measures” value in series [1] (3.0 μg/kg intranasal, pulse oximetry, heart rate, body temperature, 30 minutes or 24 hours post administration) is recorded as “without apparent acute physiological adverse effects; also recorded: No severe toxicity”. Also, in series [1] (setting [2]), the “body temperature vs vehicle” value was “no statistically significant differences”, the “heart rate vs vehicle” value is listed as “no statistically significant differences” and the “pulse oximetry vs vehicle” value was “no statistically significant differences”. In addition, the “adverse effects in control animals” value in series [1] (intranasal, control animals (Figs. 5, S4)) is recorded as “no apparent adverse effects in control animals”.

Source of the values: publication PMC12418948, “Intranasal Administration of KCNN2 Blocking Peptide Improves Deficits in Cognitive Flexibility in Mouse Model of Fetal Alcohol Spectrum Disorders” (International Journal of Neuropsychopharmacology, 2025).
